Drawing on publication PMC8143184, “Exploring the Diversity of Fungal DyPs in Mangrove Soils to Produce and Characterize Novel Biocatalysts” (Journal of Fungi, 2021), this text covers Km for two compounds.

Where two headings read alike, the source gives them in different places.

Assay [1] has as its system DyP1 (OFU1; recombinant DyP1 from mangrove soils). The following applies: read-out: Parameters / Km; H2O2 0.25 mM co-substrate; 100 mM citrate-phosphate pH 3; 30 °C.
The subject of assay [2] is T1, DyP1 (OFU1; recombinant DyP1 from mangrove soils).
T1 construct: codon-optimized synthetic cDNA from environmental cDNA capture; secreted from Pichia pastoris X33 (pPICZalphaA), C-terminal His6 tag; expected 55 kDa, about 70 kDa glycosylated on SDS-PAGE
The assay is described as follows: dye decolorization at […] nm, Michaelis-Menten fit. The assay is classed as biochemical. As to conditions: H2O2 0.25 mM co-substrate; 100 mM citrate-phosphate pH 2.6; 30 °C; read-out: Parameters / Km.

As for `CCn1c(=NN=c2sc3cc(S(=O)(=O)O)ccc3n2CC)sc2cc(S(=O)(=O)O)ccc21` [ABTS], the Km in assay [1] was 651 ± 81 µM.

As for `Nc1c(S(=O)(=O)O)cc(Nc2cccc(S(=O)(=O)CCOS(=O)(=O)O)c2)c2c1C(=O)c1ccccc1C2=O` [RB19], the Km in assay [2] was 1500 ± 878 µM.
